Measurements as given in patent publication US7396837B2, “Antitumoral analogs of lamellarins” (Pharma Mar, S.A.U., priority 2002, dated 2008).

Columns and labels:
Format in all cases: cell-based
K-562 = assay: SRB colorimetric cell growth inhibition assay, K-562
In short: (§1)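 Continuous drug exposure of human cancer cells; SRB protein stain read-out; triplicate wells, mean ± SD; GI, TGI, LC computed.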

A-549 = assay: SRB colorimetric cell growth inhibition assay, A-549
In short: as §1

SK-MEL-28 = assay: SRB colorimetric cell growth inhibition assay, SK-MEL-28; conditions: MEL-28
In short: as §1

HT-29 = assay: SRB colorimetric cell growth inhibition assay, HT-29
In short: as §1

LoVo = assay: SRB colorimetric cell growth inhibition assay, LoVo
In short: as §1

LoVo-Dox = assay: SRB colorimetric cell growth inhibition assay, LoVo-Dox (MDR); conditions: LOVO-DOX
In short: as §1

DU-145 = assay: SRB colorimetric cell growth inhibition assay, DU-145; conditions: DU-145
In short: as §1

LNCaP = assay: SRB colorimetric cell growth inhibition assay, LNCaP; conditions: LN-caP
In short: as §1

SK-BR-3 = assay: SRB colorimetric cell growth inhibition assay, SK-BR-3; conditions: SK-BR-3
In short: as §1

IGROV = assay: SRB colorimetric cell growth inhibition assay, IGROV; conditions: IGROV
In short: as §1

IGROV-ET = assay: SRB colorimetric cell growth inhibition assay, IGROV-ET (ET-743 resistant); conditions: IGROV-ET
In short: as §1

HeLa = assay: SRB colorimetric cell growth inhibition assay, HeLa; conditions: Homo sapiens, HeLa
In short: as §1

HeLa-APL = assay: SRB colorimetric cell growth inhibition assay, HeLa-APL (aplidine resistant); conditions: Homo sapiens, HELA-APL
In short: as §1

PANC-1 = assay: SRB colorimetric cell growth inhibition assay, PANC-1
In short: as §1

[1] = total growth inhibition (cytostatic effect)

COc1cc(-c2c3c4cc(OC)c(OC(=O)[C@@H](N)Cc5ccccc5)cc4oc(=O)c3n3ccc4c(OC(=O)[C@@H](N)Cc5ccccc5)c(OC)c(OC)cc4c23)ccc1OC(=O)[C@@H](N)Cc1ccccc1 [Compound 207]
CC50 (K-562; Homo sapiens, K562, K-562, cell killing (cytotoxic effect), read-out: LC50 K-562): 9260 nM | IC (TGI) (K-562; Homo sapiens, K562, K-562, total growth inhibition (cytostatic effect), read-out: TGI K-562): 3060 nM | GI50 (K-562; K-562, GI=growth inhibition, read-out: GI50 K-562): 92 nM | GI50 (A-549; A-549, GI=growth inhibition, read-out: GI50 A-549): 91.4 nM | CC50 (A-549; Homo sapiens, A549, A-549, cell killing (cytotoxic effect), read-out: LC50 A-549): 3550 nM | IC (TGI) (A-549; Homo sapiens, A549, A-549, total growth inhibition (cytostatic effect), read-out: TGI A-549): 1020 nM | GI50 (SK-MEL-28; GI=growth inhibition, read-out: GI50 MEL-28): 44.4 nM | CC50 (SK-MEL-28; cell killing (cytotoxic effect), read-out: LC50 MEL-28): 4600 nM | TGI MEL-28 (SK-MEL-28; [1]): 2.45E−07 Molar | GI50 (HT-29; HT-29, GI=growth inhibition, read-out: GI50 HT-29): 3770 nM | CC50 (HT-29; Homo sapiens, HT-29, HT-29, cell killing (cytotoxic effect), read-out: LC50 HT-29): 9260 nM | IC (TGI) (HT-29; Homo sapiens, HT-29, HT-29, total growth inhibition (cytostatic effect), read-out: TGI HT-29): 9260 nM | CC50 (LoVo; Homo sapiens, LoVo, cell killing (cytotoxic effect), read-out: LC50 LOVO): 868 nM | IC (TGI) (LoVo; Homo sapiens, LoVo, total growth inhibition (cytostatic effect), read-out: TGI LOVO): 405 nM | GI50 (LoVo; LOVO, GI=growth inhibition, read-out: GI50 LOVO): 189 nM | CC50 (LoVo-Dox; Homo sapiens, cell killing (cytotoxic effect), read-out: LC50 LOVO-DOX): 9260 nM | IC (TGI) (LoVo-Dox; Homo sapiens, total growth inhibition (cytostatic effect), read-out: TGI LOVO-DOX): 2850 nM | GI50 (LoVo-Dox; GI=growth inhibition, read-out: GI50 LOVO-DOX): 316 nM | GI50 (DU-145; GI=growth inhibition, read-out: GI50 DU-145): 23 nM | CC50 (DU-145; cell killing (cytotoxic effect), read-out: LC50 DU-145): 74.8 nM | TGI DU-145 (DU-145; [1]): 4.16E−08 Molar | GI50 (LNCaP; GI=growth inhibition, read-out: GI50 LN-caP): 127 nM | CC50 (LNCaP; cell killing (cytotoxic effect), read-out: LC50 LN-caP): 4100 nM | TGI LN-caP (LNCaP; [1]): 9.44E−07 Molar | GI50 (SK-BR-3; GI=growth inhibition, read-out: GI50 SK-BR-3): 202 nM | CC50 (SK-BR-3; cell killing (cytotoxic effect), read-out: LC50 SK-BR-3): 4210 nM | TGI SK-BR-3 (SK-BR-3; [1]): 1.07E−06 Molar | GI50 (IGROV; GI=growth inhibition, read-out: GI50 IGROV): 76.3 nM | CC50 (IGROV; cell killing (cytotoxic effect), read-out: LC50 IGROV): 1550 nM | TGI IGROV (IGROV; [1]): 3.18E−07 Molar | GI50 (IGROV-ET; GI=growth inhibition, read-out: GI50 IGROV-ET): 43.6 nM | CC50 (IGROV-ET; cell killing (cytotoxic effect), read-out: LC50 IGROV-ET): 2380 nM | TGI IGROV-ET (IGROV-ET; [1]): 2.86E−07 Molar | GI50 (HeLa; GI=growth inhibition, read-out: GI50 HELA): 42.2 nM | CC50 (HeLa; cell killing (cytotoxic effect), read-out: LC50 HELA): 3340 nM | IC (TGI) (HeLa; total growth inhibition (cytostatic effect), read-out: TGI HELA): 1230 nM | GI50 (HeLa-APL; GI=growth inhibition, read-out: GI50 HELA-APL): 77.9 nM | CC50 (HeLa-APL; cell killing (cytotoxic effect), read-out: LC50 HELA-APL): 3710 nM | IC (TGI) (HeLa-APL; total growth inhibition (cytostatic effect), read-out: TGI HELA-APL): 1500 nM | CC50 (PANC-1; Homo sapiens, PANC-1, PANC-1, cell killing (cytotoxic effect), read-out: LC50 PANC-1): 9260 nM | IC (TGI) (PANC-1; Homo sapiens, PANC-1, PANC-1, total growth inhibition (cytostatic effect), read-out: TGI PANC-1): 2370 nM | GI50 (PANC-1; PANC-1, GI=growth inhibition, read-out: GI50 PANC-1): 127 nM
